Assays:
[1] = test system: Caco-2 cells; experiment: Gene expression (qRT-PCR) in intestinal epithelial (Caco-2) cells; type: cell-based, human; details: 50 μM, 24 h
[2] = test system: Caco-2 monolayers; experiment: Caco-2 permeability and taurocholate transport in transwell system; type: cell-based, human; details: 50 μM, 24 h, p value<0.001
Experimental: The Caco-2 human adenocarcinoma cell line and Eagle's Minimum Essential Medium (EMEM) were purchased from ATCC (American Type Culture Collection, Rockville, Md.). Caco-2 cells were seeded on transwell inserts (0.4 μm pore size, Corning, N.Y.) at a density of 1.5×10^5 cells/mL and cultured for 23 days with media changes 3 times per week. On day 23, the cells were treated with either isotype control antibody (100 μg/mL), FGF19 (gp120, Genentech Inc., CA) (500 ng/mL), anti-FGF19 (100 μg/mL), DCA (Sigma-Aldrich, St. Louis, Mo.) (50 μM) or DCA (50 μM) plus anti-FGF19 (100 μg/mL) for 24 h prior to the permeability experiments. The monolayers were equilibrated for 30 min in transport buffer (HBSS with 10 mM HEPES, pH 7.4) at 37° C. and the transepithelial electrical resistance [TEER cm2), membrane area 1.12 cm^2] of each well was measured using the volt-ohm meter and STX-2 electrode. The permeabilities of lucifer yellow (LY), and taurocholate were evaluated in the apical to basolateral (A-B) direction. […] The apparent permeability for taurocholate, and LY (Papp) was calculated using the following equation: Papp=dQ/dt×1/C0A where dQ/dt is the rate of compound appearance in the receiver compartment, C0 is the concentration in the donor compartment and A is the surface area of the insert. […]

C[C@H](CCC(=O)O)[C@H]1CC[C@H]2[C@@H]3CC[C@@H]4C[C@H](O)CC[C@]4(C)[C@H]3C[C@H](O)[C@]12C [DCA, deoxycholic acid]
IBABP expression increase ([1]; p value<0.0001): > 30 fold
Ost-α expression increase ([1]; p value<0.0015): 2 fold
Ost-β expression increase ([1]; p value<0.05): 1.3 fold
taurocholate uptake, reduction vs. control [2]: −80%

From US20130183294A1, “METHODS OF USING FGF19 MODULATORS” (GENENTECH, INC., priority 2012, published 2013)
